Experiments:
[1] = tested on: mouse mesenchymal osteoblast precursor cell line KS483; experiment: Osteoblast differentiation assay: intracellular alkaline phosphatase activity (ALP) at day 8; assay type: cell-based; conditions: 1 μM, day 8, KS483 cells, mean±sem, n=6
Description: Aim: Testing the effects of 2 test compounds on differentiation and activity of osteoblasts in vitro in a preliminary set-up.
Method: One concentration of each test compound (1 μM) is tested. Effects on osteoblast differentiation are studied using a mouse mesenchymal osteoblast precursor cell line KS483. The cells are cultured on plastic surface in 96-well plates for 8 days, allowing them to differentiate into mature bone-forming osteoblasts. Baseline with vehicle • 1. Compound 3: Vehicle • 2. Compound 5: GIP-GLP-2 agonist 3 (SEQ ID NO:3) • 3. Compound 6: GIP-GLP-2 agonist 19 (SEQ ID NO:19)
In osteoblast differentiation assay: Intracellular alkaline phosphatase activity (ALP) at day 8 as an index of the number of mature osteoblasts formed.

[2] = biological target: T1, human GIP receptor (Homo sapiens, UniProt P48546); experiment: cAMP accumulation assay (HitHunter cAMP XS) in transiently transfected COS-7 cells expressing the human GIP receptor; assay type: cell-based; conditions: for Emax at 10 µM: COS-7, read-out: Emax (10 μM), GIP receptor; for EC50: logEC50, GIP receptor, log value, cAMP, COS-7
T1 construct: host or cells: COS-7 (transient, calcium phosphate; pCMV-Script vector)
T1 sequence (P48546 22-466): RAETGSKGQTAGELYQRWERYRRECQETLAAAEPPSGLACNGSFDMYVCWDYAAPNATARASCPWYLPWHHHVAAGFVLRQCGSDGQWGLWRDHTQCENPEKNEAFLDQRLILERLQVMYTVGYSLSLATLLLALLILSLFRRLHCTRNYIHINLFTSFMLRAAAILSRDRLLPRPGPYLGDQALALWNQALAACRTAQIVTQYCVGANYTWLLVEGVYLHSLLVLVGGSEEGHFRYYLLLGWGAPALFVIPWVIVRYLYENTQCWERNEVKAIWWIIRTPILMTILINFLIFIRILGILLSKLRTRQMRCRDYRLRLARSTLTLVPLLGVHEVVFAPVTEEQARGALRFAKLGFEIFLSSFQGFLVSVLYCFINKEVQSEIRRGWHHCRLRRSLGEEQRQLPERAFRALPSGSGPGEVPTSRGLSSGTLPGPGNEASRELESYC
Description: (§1) The day after, the cells were washed twice with Hepes buffered saline (HBS) buffer and incubated with HBS and 1 mM 3-isobutyl-1-methylxanthine (IBMX) for 30 min at 37° C. Ligands were added and incubated for 30 min at 37° C. The HitHunter™ cAMP XS assay (DiscoveRx) was carried out according to the manufacturer's instructions.

[3] = biological target: T2, human GLP-2 receptor (Homo sapiens, UniProt O95838); experiment: cAMP accumulation assay (HitHunter cAMP XS) in transiently transfected COS-7 cells expressing the human GLP-2 receptor; assay type: cell-based; conditions: for Emax at 10 µM: COS-7, read-out: Emax (10 μM), GLP-2 receptor; for logEC50, GLP-2 receptor: log value
T2 construct: host or cells: COS-7 (transient, calcium phosphate; pCMV-Script vector)
T2 sequence (O95838 1-553): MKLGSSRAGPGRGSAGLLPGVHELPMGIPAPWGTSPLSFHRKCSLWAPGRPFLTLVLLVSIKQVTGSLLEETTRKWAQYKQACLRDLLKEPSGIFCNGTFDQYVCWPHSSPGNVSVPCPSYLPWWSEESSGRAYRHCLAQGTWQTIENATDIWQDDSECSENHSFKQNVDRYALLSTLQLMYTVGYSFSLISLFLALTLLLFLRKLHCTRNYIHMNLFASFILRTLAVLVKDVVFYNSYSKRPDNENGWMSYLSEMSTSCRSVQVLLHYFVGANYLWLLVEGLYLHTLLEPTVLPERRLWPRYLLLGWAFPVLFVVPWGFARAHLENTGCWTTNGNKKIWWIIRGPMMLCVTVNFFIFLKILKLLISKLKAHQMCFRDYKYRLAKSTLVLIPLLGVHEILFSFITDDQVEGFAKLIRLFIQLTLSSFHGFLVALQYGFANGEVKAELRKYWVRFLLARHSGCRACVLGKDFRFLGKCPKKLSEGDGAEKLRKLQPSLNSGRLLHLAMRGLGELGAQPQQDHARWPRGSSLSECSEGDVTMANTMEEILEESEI
Description: as §1

[4] = tested on: bone resorption (serum C-terminal cross-linking telopeptide of type I collagen, CTX); experiment: Human study 1: bone resorption by serum CTX after subcutaneous injection of GIP or GLP-2; assay type: in vivo
Description: Method: Eight healthy young men were enrolled. […] Participants arrived in the morning (fasted overnight) and received the injection around 8.30 a.m. Blood samples were collected before (−25 and −10 min) and every 30 minutes after injection (30, 60, 90, 120, 180 and 240 min). After last participant's last visit, bone resorption was determined by measurements of serum C-terminal cross-linking telopeptide of type I collagen (CTX; IDS Immunodiagnostic Systems GmbH, Frankfurt am Main, Germany)

| Emax at 10 µM [2] [%] | potency (and efficacy) on the GIP receptor compared with native GIP, in words ([2]; Table 1) | fold (fold change of native GIP), GIP receptor ([2]; Table 1, EC50 relative to native GIP) [fold] | EC50 ([2]; Table 1) [nM] | Emax at 10 µM [3] [%] | fold (fold change of native GLP-2), GLP-2 receptor ([3]; Table 1, EC50 relative to native GLP-2) [fold] | EC50 ([3]; logEC50, GLP-2 receptor, Table 1, cAMP, COS-7) [nM] | potency and efficacy on the GLP-2R compared with native GLP-2, in words ([3]; Table 1) | logEC50, GLP-2 receptor ([3]; Table 1, cAMP, COS-7) | logEC50, GLP-2 receptor ([3]; Table 2, cAMP, COS-7) | Compound | ALP activity compared to vehicle [1] [%] | reduction in bone resorption (CTX) ([4]; 200 μg GIP and 800 μg GLP-2, each alone, s.c., restated in Example 4) [%] | bone resorption (CTX), maximum effect, % of base line ([4]; human GIP 200 μg s.c., healthy young men, 90 min after injection) |
| --- | --- | --- | --- | --- | --- | --- | --- | --- | --- | --- | --- | --- | --- |
| 100 | same potency as native GIP(1-42) | 1.2 | 0.107 | 100 | 18 | 21.4 | – | – | – | CC[C@H](C)[C@H](NC(=O)[C@H](Cc1ccccc1)NC(=O)[C@H](CC(=O)O)NC(=O)[C@H](CCCNC(=N)N)NC(=O)[C@H](C)NC(=O)[C@H](C)NC(=O)[C@H](CC(C)C)NC(=O)[C@H](CC(N)=O)NC(=O)[C@H](CC(=O)O)NC(=O)[C@H](CC(C)C)NC(=O)[C@@H](NC(=O)[C@@H](NC(=O)[C@H](CO)NC(=O)[C@H](Cc1ccc(O)cc1)NC(=O)[C@H](CC(=O)O)NC(=O)[C@H](CO)NC(=O)[C@@H](NC(=O)[C@H](Cc1ccccc1)NC(=O)[C@@H](NC(=O)CNC(=O)[C@H](CC(=O)O)NC(=O)[C@H](C)NC(=O)[C@@H](N)Cc1c[nH]cn1)[C@@H](C)O)[C@@H](C)CC)[C@@H](C)O)[C@@H](C)CC)C(=O)N[C@@H](CC(N)=O)C(=O)N[C@@H](Cc1c[nH]c2ccccc12)C(=O)N[C@@H](CC(C)C)C(=O)N[C@H](C(=O)N[C@@H](CCC(N)=O)C(=O)N[C@H](C(=O)N[C@@H](CCCCN)C(=O)N[C@H](C(=O)N[C@H](C(=O)N[C@@H](CC(=O)O)C(=O)O)[C@@H](C)O)[C@@H](C)CC)[C@@H](C)O)[C@@H](C)CC [Co-agonist 3] | 112±5.6 | – | – |
| 93 | almost the same potency and efficacy | – | 0.251 | 91 | – | – | almost the same potency and efficacy | – | – | CC[C@H](C)[C@H](NC(=O)[C@H](Cc1ccccc1)NC(=O)[C@H](CC(=O)O)NC(=O)[C@H](CCCNC(=N)N)NC(=O)[C@H](C)NC(=O)[C@H](C)NC(=O)[C@H](CC(C)C)NC(=O)[C@H](CC(N)=O)NC(=O)[C@H](CC(=O)O)NC(=O)[C@H](CC(C)C)NC(=O)[C@@H](NC(=O)[C@@H](NC(=O)[C@H](CO)NC(=O)[C@H](Cc1ccc(O)cc1)NC(=O)[C@H](CC(=O)O)NC(=O)[C@H](CO)NC(=O)[C@@H](NC(=O)[C@H](Cc1ccccc1)NC(=O)[C@@H](NC(=O)CNC(=O)[C@H](CC(=O)O)NC(=O)[C@H](C)NC(=O)[C@@H](N)Cc1c[nH]cn1)[C@@H](C)O)[C@@H](C)CC)[C@@H](C)O)[C@@H](C)CC)C(=O)N[C@@H](CC(N)=O)C(=O)N[C@@H](Cc1c[nH]c2ccccc12)C(=O)N[C@@H](CC(C)C)C(=O)N[C@H](C(=O)N[C@@H](CCC(N)=O)C(=O)N[C@H](C(=O)N[C@@H](CCCCN)C(=O)NCC(=O)N[C@@H](CCCCN)C(=O)N[C@@H](CCCCN)C(=O)O)[C@@H](C)O)[C@@H](C)CC [Co-agonist 19] | 115±8.9 | – | – |
| – | – | – | – | – | – | – | – | no activation | no activation | CC[C@H](C)[C@H](NC(=O)[C@H](CO)NC(=O)[C@H](Cc1ccc(O)cc1)NC(=O)[C@H](CC(=O)O)NC(=O)[C@H](CO)NC(=O)[C@@H](NC(=O)[C@H](Cc1ccccc1)NC(=O)[C@@H](NC(=O)CNC(=O)[C@H](CCC(=O)O)NC(=O)[C@H](C)NC(=O)[C@@H](N)Cc1ccc(O)cc1)[C@@H](C)O)[C@@H](C)CC)C(=O)N[C@@H](C)C(=O)N[C@@H](CCSC)C(=O)N[C@@H](CC(=O)O)C(=O)N[C@@H](CCCCN)C(=O)N[C@H](C(=O)N[C@@H](Cc1c[nH]cn1)C(=O)N[C@@H](CCC(N)=O)C(=O)N[C@@H](CCC(N)=O)C(=O)N[C@@H](CC(=O)O)C(=O)N[C@@H](Cc1ccccc1)C(=O)N[C@H](C(=O)N[C@@H](CC(N)=O)C(=O)N[C@@H](Cc1c[nH]c2ccccc12)C(=O)N[C@@H](CC(C)C)C(=O)N[C@@H](CC(C)C)C(=O)N[C@@H](C)C(=O)N[C@@H](CCC(N)=O)C(=O)N[C@@H](CCCCN)C(=O)NCC(=O)N[C@@H](CCCCN)C(=O)N[C@@H](CCCCN)C(=O)N[C@@H](CC(N)=O)C(=O)N[C@@H](CC(=O)O)C(=O)N[C@@H](Cc1c[nH]c2ccccc12)C(=O)N[C@@H](CCCCN)C(=O)N[C@@H](Cc1c[nH]cn1)C(=O)N[C@@H](CC(N)=O)C(=O)N[C@H](C(=O)N[C@H](C(=O)N[C@@H](CCC(N)=O)C(=O)O)[C@@H](C)O)[C@@H](C)CC)C(C)C)[C@@H](C)CC [GIP, reference compound] | – | ~50 | 56.2±11.2 % of base line |

From patent publication US11725037B2, “Peptide dual agonists of GIPR and GLP2R” (University of Copenhagen, priority 2017, dated 2023)
